Test results as given in article PMC8038090, “Xanthine Oxidase Inhibitors from Filipendula ulmaria (L.) Maxim. and Their Efficient Detections by HPTLC and HPLC Analyses” (Molecules, 2021).
Converted amounts (≈) assume the structure as drawn. “Also recorded” adds a separate entry of the source. Where two headings read alike, the source gives them in different places.

Tests used:
xanthine oxidase (XO) [1] = experiment: HPTLC xanthine oxidase bioautography (NBT/formazan); assay type: biochemical; settings: for XO inhibitory activity on HPTLC bioautography plate (spot intensity): white/yellow spots on purple background, 1 mg/mL, 20 µL applied
Method: As the spectrophotometer analysis monitors the production of uric acid from xanthine, the HPTLC method measures the production of the superoxide radical anion formed during the regeneration of an enzyme. In contact with superoxide radical anion, the Nitro Blue Tetrazolium (NBT) is transformed in formazan (purple), inducing a change in the color of the reaction mixture. The inhibitors will appear as white/yellow spots under a purple background.
The samples were prepared by dissolving 1 mg of each fraction in 1 mL of methanol, and 20 µL was applied on 8 mm bands, 8 mm from the lower edge of the plate. The mobile phase was a mixture of ethyl acetate, dichloromethane, formic acid, acetic acid, and water (100:25:10:10:11). […] After development, plates were dried under a stream of cool air for 10 min.
The XO inhibition assay was conducted using the method developed by Ramallo [32], with slight modifications. After migration, the plates were dipped into a solution of PBS 120 mM containing xanthine oxidase (0.1 U/mL), EDTA (1 mM), and NBT (1 mM) in a sterilizer, at 37 °C in the dark for 30 min. The plates were then dipped into a solution of PBS 120 mM containing xanthine (1.5 mM) in a sterilizer, at 37 °C for 30 min in the dark.

[2] = Solubility for the XO assay; assay type: physicochemical; settings: in water or DMSO
xanthine oxidase (XO) [3] = biological target: xanthine oxidase (XO) (Bos taurus, UniProt P80457); experiment: Xanthine oxidase inhibitory activity by UV spectroscopy (uric acid formation at 293 nm); assay type: biochemical
Method: Inhibition of XO was conducted according to the procedure described by Sowndhararajan et al., with slight modifications. […] Prior to the addition of XO solution in the mixture, all the components were incubated at 25 °C in the dark for 5 min. […] The enzymatic activity assay without extract was defined as maximum relative activity, and the percentage of inhibition was calculated according to the method of Yan et al. IC50 values were determined using linear regression and are expressed in µg/mL of plant extract ± standard deviation. All measurements were performed in triplicate (n = 3).

xanthine oxidase (XO) [4] = biological target: xanthine oxidase (XO); set-up: method as in doi:10.5539/jfr.v1n3p257, doi:10.1016/j.bjp.2015.08.013; settings: described to possess no inhibitory activity; read-out: IC50, XO inhibition (described); cited from earlier work
xanthine oxidase (XO) [5] = experiment: Measurement of XO interaction by HPLC (crude extract incubated with and without enzyme); assay type: binding; settings: crude extract 1 mg/mL, XO 0.1 U/mL, 1 h; for Interaction with XO (HPLC subtraction, negative peaks): HPLC-UV 254 nm; for XO binding (%): estimated from difference of peak area with and without XO
Method: The identification of bioactive compounds which form in a complex mixture by rapid screening, without the requirement of purification, is a challenging approach. […] Based on the method described by Wang, we incubated the enzyme with the crude extract and carried out HPLC analyses on the filtrate after centrifugation.
The measurement of XO interaction was conducted according to Zhang’s procedure, with some modifications. The assay mixture contained 10 mL of crude extract at 1 mg/mL in water, and 200 µL of xanthine oxidase (final concentration of 0.1 U/mL), or 200 µL of water. Prior to the HPLC analysis, the solution was mixed for one hour at room temperature in the dark. After one hour, the mixture was centrifuged at 4500× g […] and supernatant was filtered through a 0.45 µm PTFE filter. […] Potential inhibitors were identified after subtraction of the chromatogram obtained from the assay with and without XO (negative peaks).

[6] = Stability in solution for the XO assay; assay type: physicochemical
[7] = UV spectroscopy, xanthine 56 µM, XO 0.01 U/mL, 25 °C, n = 3, read-out: IC50 (µg/mL), XO inhibition (converted)
[8] = UV spectroscopy, xanthine 56 µM, XO 0.01 U/mL, 25 °C, n = 3, read-out: IC50 (µM), XO inhibition

xanthine oxidase (XO) (Bos taurus, UniProt P80457), sequence (P80457 2-1332 limits assumed): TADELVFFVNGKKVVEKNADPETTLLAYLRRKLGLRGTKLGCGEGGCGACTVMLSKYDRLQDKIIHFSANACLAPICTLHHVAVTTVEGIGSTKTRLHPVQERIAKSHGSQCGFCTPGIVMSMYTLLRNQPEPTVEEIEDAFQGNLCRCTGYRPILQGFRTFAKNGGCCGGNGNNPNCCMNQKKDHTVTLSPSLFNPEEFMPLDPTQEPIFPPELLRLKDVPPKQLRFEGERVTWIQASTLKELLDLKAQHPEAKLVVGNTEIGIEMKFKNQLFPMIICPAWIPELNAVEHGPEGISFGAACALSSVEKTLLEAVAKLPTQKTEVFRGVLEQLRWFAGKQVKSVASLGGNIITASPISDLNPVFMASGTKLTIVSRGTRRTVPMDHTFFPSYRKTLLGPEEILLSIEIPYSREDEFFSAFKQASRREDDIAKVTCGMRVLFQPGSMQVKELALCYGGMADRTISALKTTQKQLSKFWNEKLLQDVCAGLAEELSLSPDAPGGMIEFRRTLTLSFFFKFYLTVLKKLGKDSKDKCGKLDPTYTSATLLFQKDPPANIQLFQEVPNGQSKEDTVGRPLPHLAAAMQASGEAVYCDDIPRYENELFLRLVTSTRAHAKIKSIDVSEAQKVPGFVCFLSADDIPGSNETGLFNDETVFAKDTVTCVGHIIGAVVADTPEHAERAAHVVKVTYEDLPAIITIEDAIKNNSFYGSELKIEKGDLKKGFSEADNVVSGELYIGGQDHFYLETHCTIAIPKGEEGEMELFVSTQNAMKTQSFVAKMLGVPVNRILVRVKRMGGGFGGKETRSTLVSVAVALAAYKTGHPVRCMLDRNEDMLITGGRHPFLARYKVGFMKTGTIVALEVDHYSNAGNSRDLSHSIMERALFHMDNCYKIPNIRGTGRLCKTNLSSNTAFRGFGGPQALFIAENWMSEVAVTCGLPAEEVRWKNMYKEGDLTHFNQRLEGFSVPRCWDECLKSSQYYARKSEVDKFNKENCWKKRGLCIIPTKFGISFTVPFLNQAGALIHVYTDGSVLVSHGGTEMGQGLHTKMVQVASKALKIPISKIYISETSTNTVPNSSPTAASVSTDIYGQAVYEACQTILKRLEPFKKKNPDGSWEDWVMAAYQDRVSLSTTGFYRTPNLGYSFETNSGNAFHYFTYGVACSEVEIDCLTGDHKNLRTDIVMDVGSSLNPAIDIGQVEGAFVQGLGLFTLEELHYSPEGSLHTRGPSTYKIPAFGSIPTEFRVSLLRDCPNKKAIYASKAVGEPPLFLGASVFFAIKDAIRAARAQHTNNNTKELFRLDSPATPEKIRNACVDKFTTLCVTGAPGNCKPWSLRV

In the case of `O=c1oc2c(O)c(O)cc3c(=O)oc4c(O)c(O)cc1c4c23` [Ellagic acid], the “Stability on the HPTLC plate” value (xanthine oxidase (XO) [1]) is reported as “decompose on the plate”, the “XO inhibitory activity on HPTLC bioautography plate (spot intensity)” value (“XO inhibitory activity … (spot intensity)” below) (xanthine oxidase (XO) [1]) is reported as “weak activity” and the Solubility [2] is reported as “not soluble”.
For `O=C(O)c1cc(O)c(O)c(O)c1` [Gallic acid], the IC50 (xanthine oxidase (XO) [3]) is listed as over 50 µM, the IC50 (xanthine oxidase (XO) [3]; [7]) is listed as over 1760 µM and the IC50 (xanthine oxidase (XO) [4]) is listed as over 100 µM.
With `O=c1c(O[C@@H]2O[C@H](CO)[C@H](O)[C@H](O)[C@H]2O)c(-c2ccc(O)c(O)c2)oc2cc(O)cc(O)c12` [Hyperoside] the IC50 (xanthine oxidase (XO) [3]; [8]) was over 50 µM, the IC50 (xanthine oxidase (XO) [3]; [7]) was over 215 µM and the “XO inhibitory activity … (spot intensity)” value (xanthine oxidase (XO) [1]) was “weak interactions”. For the same compound, the “Interaction with XO (HPLC subtraction, negative peaks)” value (shortened to “Interaction with XO”) (xanthine oxidase (XO) [5]) was “did not seem to interact”.
For `O=c1c(O[C@@H]2O[C@H](CO)[C@@H](O)[C@H](O)[C@H]2O)c(-c2ccc(O)c(O)c2)oc2cc(O)cc(O)c12` [Isoquercitrin], the IC50 (xanthine oxidase (XO) [3]; [8]) was over 50 µM, the IC50 (xanthine oxidase (XO) [3]; [7]) was over 215 µM and the “XO inhibitory activity … (spot intensity)” value (xanthine oxidase (XO) [1]) was “weak interactions”. For the same compound, the “Interaction with XO” value (xanthine oxidase (XO) [5]) was “did not seem to interact”.
With `O=c1c(O)c(-c2ccc(O[C@@H]3O[C@H](CO)[C@@H](O)[C@H](O)[C@H]3O)cc2)oc2cc(O)cc(O)c12` [Kaempferol-4′-O-glucoside] the “Interaction with XO” value (xanthine oxidase (XO) [5]) was “significant interactions”.
In the case of `O=c1c(O)c(-c2ccc(O)cc2)oc2cc(O)cc(O)c12` [Kaempferol], the “XO inhibitory activity … (spot intensity)” value (xanthine oxidase (XO) [1]) is reported as “quite strong inhibitors; also recorded: strong interactions” and the “Interaction with XO” value (xanthine oxidase (XO) [5]) is reported as “seem to interact”.
With `O=c1c(O)c(-c2ccc(O)c(O)c2)oc2cc(O)cc(O)c12` [Quercetin] the “XO inhibitory activity … (spot intensity)” value (xanthine oxidase (XO) [1]) was “quite strong inhibitors; also recorded: strong interactions”, the “Interaction with XO” value (xanthine oxidase (XO) [5]) was “seem to interact” and the “XO binding (%)” value (xanthine oxidase (XO) [5]) was about 50%.
With `O=C(O[C@@H]1O[C@@H]2COC(=O)c3cc(Oc4c(C(=O)O[C@@H]5O[C@@H]6COC(=O)c7cc(O)c(O)c(O)c7-c7c(cc(O)c(O)c7O)C(=O)O[C@H]6[C@H](OC(=O)c6cc(O)c(O)c(O)c6)[C@H]5OC(=O)c5cc(O)c(O)c(O)c5)cc(O)c(O)c4O)c(O)c(O)c3-c3c(cc(O)c(O)c3O)C(=O)O[C@H]2[C@H](OC(=O)c2cc(O)c(O)c(O)c2)[C@H]1OC(=O)c1cc(O)c(O)c(O)c1)c1cc(O)c(O)c(O)c1` [Rugosin D] the “IC50 (µg/mL), XO inhibition” value (xanthine oxidase (XO) [3]; UV spectroscopy, xanthine 56 µM, XO 0.01 U/mL, 25 °C, n = 3) was 67.0 ± 1.1 µg/mL (≈ 35.7 µM), the IC50 (xanthine oxidase (XO) [3]; [8]) was 35.7 ± 2.1 µM and the “XO inhibitory activity … (spot intensity)” value (xanthine oxidase (XO) [1]) was “strong interactions”. For the same compound, the “Interaction with XO” value (xanthine oxidase (XO) [5]) was “strongest interaction” and the “XO binding (%)” value (xanthine oxidase (XO) [5]) was “around 60%”.
For `O=C(O)c1ccccc1O` [Salicylic acid], the IC50 (xanthine oxidase (XO) [3]; [8]) is listed as over 50 µM, the IC50 (xanthine oxidase (XO) [3]; [7]) is listed as over 2170 µM and the IC50 (xanthine oxidase (XO) [4]) is listed as over 100 µM.
In the case of `O=c1c(O)c(-c2ccc(O[C@@H]3O[C@H](CO)[C@@H](O)[C@H](O)[C@H]3O)c(O)c2)oc2cc(O)cc(O)c12` [Spiraeoside], the IC50 (xanthine oxidase (XO) [3]; [8]) is reported as 0.66 ± 0.02 µM, the IC50 (xanthine oxidase (XO) [3]; [7]) is reported as 0.668 µM and the “XO inhibitory activity relative to allopurinol” value (xanthine oxidase (XO) [3]; activity higher than allopurinol) is reported as “around 25 times”. For the same compound, the “XO inhibitory activity … (spot intensity)” value (xanthine oxidase (XO) [1]) was “quite strong inhibitors; also recorded: strong interactions”, the “Interaction with XO” value (xanthine oxidase (XO) [5]) was “significant interactions” and the “XO binding (%)” value (xanthine oxidase (XO) [5]) was “around 30%”.
With `O=C(OC1O[C@@H]2COC(=O)c3cc(O)c(O)c(O)c3-c3c(cc(O)c(O)c3O)C(=O)O[C@H]2[C@H](OC(=O)c2cc(O)c(O)c(O)c2)[C@H]1OC(=O)c1cc(O)c(O)c(O)c1)c1cc(O)c(O)c(O)c1` (stereo partly drawn) [Tellimagrandin II] the “Stability on the HPTLC plate” value (xanthine oxidase (XO) [1]) was “decompose on the plate”, the “XO inhibitory activity … (spot intensity)” value (xanthine oxidase (XO) [1]) was “weak activity” and the “Interaction with XO” value (xanthine oxidase (XO) [5]) was “strongest interaction”. The “XO binding (%)” value (xanthine oxidase (XO) [5]) was “around 30%” and the Stability in solution [6] was “decomposed in the solution”.
